According to patent US4248864A, “Reproduction control” (American Home Products Corporation, priority 1979, dated 1981):
Where “and” joins values, the source holds several entries; their conditions need not be identical. Identical values can stand only once. Entries after “also recorded” stand apart in the source; their conditions may differ.

Key:
[1] = test system: Female Charles River CD rats (pregnancy); experiment: Post-coital contraceptive effect in the rat: single intrauterine (right horn) administration on D5 of pregnancy; format: in vivo; conditions: for Number of placental sites, left horn / Number of placental sites, right horn (injected) / Number of viable fetuses, left horn / Number of viable fetuses, right horn (injected) / Uterine weight, left horn and contents / Uterine weight, right horn (injected) and contents: autopsy D20, 15 rats/group; for Uterine weight, left horn and contents / Uterine weight, right horn (injected) and contents: in g
Procedure: Female Charles River CD® rats (200-210 g) were allowed to cohabit with proven males; the presence of sperm in the vaginal smear was considered day 1 (D1) of pregnancy. In order to lessen the problem of variability between experiments, 5 rats were autopsied at each dose level and the study replicated 3 times to accumulate a total of 15 rats in each experimental group. Luteinizing hormone-releasing hormone was dissolved in 2 μl of 0.9% NaCl and injected into the right horn of the uterus below the utero-tubal junction between 0945 and 1015 h on D5. One group of control animals received an intrauterine (IU) injection of 2 μl saline into the right horn on D5. The control animals were autopsied in groups of 5 rats and replicated 3 times to accumulate a total of 15 rats. On D20 the rats were sacrificed, and the uterine horns were divided and weighed individually. The number of viable fetuses as well as the number of placental sites in each horn was recorded. Fetuses from both horns, in control and experimental groups, were examined and weighed individually. A viable fetus is defined as one which compares in anatomical development and weight to a normal control fetus at D20 of gestation. Statistical analysis of the number of viable fetuses and placental sites in each horn was determined by the Kruwalc-Henderson method (Proc. Third Am. Conference of the SAS Users Group International, SAS Institute, Raleigh, North Carolina (1978)); uterine weights of each horn were subjected to analysis of variance (Conover, Practical Nonparametric Statistics, N.Y. John Wiley and Sons, Inc. page 256 (1979)).
Following the same procedure, [D-Trp^6, des-Gly-NH2^10 ]LHRH ethylamide (a representative LHRH agonist analogue) was injected into the uterine lumen of the right uterine horn of female Charles River CD® rats on day 5 after coitus. The status of the pregnancy as indicated by viable fetuses was as follows: […]

pregnancy = conditions: cited from earlier work
[2] = test system: zona pellucida of blastocyst; experiment: In vitro removal (lysis) of the zona pellucida of a blastocyst; format: cell-based
Text: To denude a blastocyst of its zona pellucide in vitro the fertilized ovum is removed from the uterus of the donor animal by known means. The blastocyst is then placed in a small volume of known compatable medium such as physiological saline and LHRH or an agonist is introduced into the medium. The course of removal of the zona pellucida may be readily followed with a microscope and the time period necessary for complete removal of the zona is related to the concentration of the releasing hormone, thereby permitting timed blastocyst release during egg transplant procedures. At 500 μg/μl LHRH in 0.9 percent saline the zona pellucida lyses in about 0.5 minutes; at 50 μg/μl in about 15 to 25 minutes and at 15 μg/μl in about 60 minutes. Recovery of the free blastocyst and transfer to the uterus of a properly prepared and timed mammalion species may then be effected by conventional transfer techniques under optimal timing conditions of both the fertilized egg and the uterine epithelium.

[3] = test system: Female Charles River CD rats (pregnancy); experiment: Single intravaginal or intrajugular administration on D5 of pregnancy; format: in vivo, rat; conditions: for Number of placental sites, left horn / Number of placental sites, right horn / Number of viable fetuses, left horn / Number of viable fetuses, right horn / Uterine weight, left horn / Uterine weight, right horn: 5 rats/group; for Uterine weight, left horn / Uterine weight, right horn: in g
[4] = 10 μg into right uterine horn day 5 after coitus, 4 rats
[5] = 100 μg into right uterine horn day 5 after coitus, 5 rats
[6] = 1,000 μg into right uterine horn day 5 after coitus, 4 rats
[7] = 100 μg intrauterine right horn D5
[8] = 200 μg intrauterine right horn D5
[9] = 300 μg intrauterine right horn D5
[10] = 500 μg intrauterine right horn D5
[11] = 1,000 μg intrauterine right horn D5
[12] = dose 1,000, single intrajugular (IV) D5
[13] = dose 1,000, single intravaginal (Vag) D5

[D-Trp^6, des-Gly-NH2^10 ]LHRH ethylamide
Viable Fetuses Mean, Left [1, 4]: 6.5 | Viable Fetuses Mean, Right [1, 4]: 3.8 | Viable Fetuses Mean, Left [1, 5]: 3.6 | Viable Fetuses Mean, Right [1, 5]: 0.4 | Viable Fetuses Mean, Left [1, 6]: 3.3 | Viable Fetuses Mean, Right [1, 6]: 0.5

Luteinizing hormone releasing hormone [LHRH]
Effect on number of viable fetuses or uterine weight (pregnancy; 1000 μg injection (s.c.) on D5, Humphrey et al.): failed to alter | Effect on ensuing pregnancy (pregnancy; acute subcutaneous injection of 5000 μg, Beattie and Corbin 1977): failed to inhibit the ensuing pregnancy | Time to lysis of the zona pellucida ([2]; 15 μg/μl in 0.9 percent saline): about 60 minutes | Time to lysis of the zona pellucida ([2]; 500 μg/μl in 0.9 percent saline): about 0.5 minutes | Number of placental sites, left horn [1, 7]: 0.1 ± 0.1 | Number of placental sites, right horn (injected) [1, 7]: 0.1 ± 0.1 | Number of viable fetuses, left horn [1, 7]: 5.7 ± 0.4 | Number of viable fetuses, right horn (injected) [1, 7]: 3.2 ± 0.3 | Uterine weight, left horn and contents [1, 7]: 19.1 ± 1.5 | Uterine weight, right horn (injected) and contents [1, 7]: 12.0 ± 1.0 | Number of placental sites, left horn [1, 8]: 0.1 ± 0.1 | Number of placental sites, right horn (injected) [1, 8]: 1.6 ± 0.5 | Number of viable fetuses, left horn [1, 8]: 5.4 ± 0.8 | Number of viable fetuses, right horn (injected) [1, 8]: 1.7 ± 0.4 | Uterine weight, left horn and contents [1, 8]: 19.4 ± 2.7 | Uterine weight, right horn (injected) and contents [1, 8]: 6.5 ± 1.3 | Number of placental sites, left horn [1, 9]: 0.7 ± 0.6 | Number of placental sites, right horn (injected) [1, 9]: 1.3 ± 0.3 | Number of viable fetuses, left horn [1, 9]: 6.5 ± 0.6 | Number of viable fetuses, right horn (injected) [1, 9]: 1.5 ± 0.4 | Uterine weight, left horn and contents [1, 9]: 21.2 ± 2.3 | Uterine weight, right horn (injected) and contents [1, 9]: 6.9 ± 1.6 | Number of placental sites, left horn [1, 10]: 0.5 ± 0.3 | Number of placental sites, right horn (injected) [1, 10]: 1.5 ± 0.7 | Number of viable fetuses, left horn [1, 10]: 6.1 ± 0.7 | Number of viable fetuses, right horn (injected) [1, 10]: 1.3 ± 0.3 | Uterine weight, left horn and contents [1, 10]: 21.8 ± 2.0 | Uterine weight, right horn (injected) and contents [1, 10]: 6.0 ± 0.9 | Number of placental sites, left horn [1, 11]: 0.3 ± 0.2 | Number of placental sites, right horn (injected) [1, 11]: 2.3 ± 0.6 | Number of viable fetuses, left horn [1, 11]: 6.9 ± 0.7 | Number of viable fetuses, right horn (injected) [1, 11]: 0.8 ± 0.2 and 0.8 | Uterine weight, left horn and contents [1, 11]: 24.3 ± 2.5 | Uterine weight, right horn (injected) and contents [1, 11]: 4.3 ± 0.8 | Number of placental sites vs control ([1]; 200-1000 μg intrauterine right horn D5): significant increase | Number of viable fetuses in the right horn vs control ([1]; all doses (100-1,000 μg) intrauterine right horn D5): significant reduction | Single intra-uterine treatment dose sufficient to prevent pregnancy [1]: about 1,000 μg | Effect on pregnancy (viable fetuses, uterine weight, placental sites) in either horn ([3]; 1000 μg via jugular vein or vagina on D5): failed to alter the pregnancy in either horn; also recorded: inactive; also recorded: no negative effects | Number of placental sites, left horn [3, 12]: 0.6±0.2 | Number of placental sites, right horn [3, 12]: 0.2±0.2 | Number of viable fetuses, left horn [3, 12]: 7.4±0.7 | Number of viable fetuses, right horn [3, 12]: 5.4±1.0 | Uterine weight, left horn [3, 12]: 26.3±3.0 | Uterine weight, right horn [3, 12]: 18.2±3.9 | Number of placental sites, left horn [3, 13]: 0.4±0.2 | Number of placental sites, right horn [3, 13]: 0.2±0.2 | Number of viable fetuses, left horn [3, 13]: 6.6±0.9 | Number of viable fetuses, right horn [3, 13]: 7.4±0.8 | Uterine weight, left horn [3, 13]: 20.5±2.9 | Uterine weight, right horn [3, 13]: 21.4±2.0

[D-Trp^6 -N-methyl-Leu^7 des-Gly NH2^10 ]LHRH ethylamide
Single intra-uterine treatment dose sufficient to prevent pregnancy [1]: 100 µg
